According to ChEMBL document CHEMBL2417377, “Hit-to-lead optimization and kinase selectivity of imidazo[1,2-a]quinoxalin-4-amine derived JNK1 inhibitors” (Bioorg Med Chem Lett, 2013):

Tests used:
Conditions in all cases: PC-3
[1] = target: Epidermal growth factor receptor (Homo sapiens) (UniProt P00533); test: Inhibition of EGFR in human PC3 cell lysates at 10 uM using desthiobiotin-tagged ATP probe AX9989 followed by trypsinization by LC/MS analysis
[2] = target: T1, Peripheral plasma membrane protein CASK (Homo sapiens) (UniProt O14936); test: Inhibition of CASK in human PC3 cell lysates at 10 uM using desthiobiotin-tagged ATP probe AX9989 followed by trypsinization by LC/MS analysis
T1 sequence (whole entry): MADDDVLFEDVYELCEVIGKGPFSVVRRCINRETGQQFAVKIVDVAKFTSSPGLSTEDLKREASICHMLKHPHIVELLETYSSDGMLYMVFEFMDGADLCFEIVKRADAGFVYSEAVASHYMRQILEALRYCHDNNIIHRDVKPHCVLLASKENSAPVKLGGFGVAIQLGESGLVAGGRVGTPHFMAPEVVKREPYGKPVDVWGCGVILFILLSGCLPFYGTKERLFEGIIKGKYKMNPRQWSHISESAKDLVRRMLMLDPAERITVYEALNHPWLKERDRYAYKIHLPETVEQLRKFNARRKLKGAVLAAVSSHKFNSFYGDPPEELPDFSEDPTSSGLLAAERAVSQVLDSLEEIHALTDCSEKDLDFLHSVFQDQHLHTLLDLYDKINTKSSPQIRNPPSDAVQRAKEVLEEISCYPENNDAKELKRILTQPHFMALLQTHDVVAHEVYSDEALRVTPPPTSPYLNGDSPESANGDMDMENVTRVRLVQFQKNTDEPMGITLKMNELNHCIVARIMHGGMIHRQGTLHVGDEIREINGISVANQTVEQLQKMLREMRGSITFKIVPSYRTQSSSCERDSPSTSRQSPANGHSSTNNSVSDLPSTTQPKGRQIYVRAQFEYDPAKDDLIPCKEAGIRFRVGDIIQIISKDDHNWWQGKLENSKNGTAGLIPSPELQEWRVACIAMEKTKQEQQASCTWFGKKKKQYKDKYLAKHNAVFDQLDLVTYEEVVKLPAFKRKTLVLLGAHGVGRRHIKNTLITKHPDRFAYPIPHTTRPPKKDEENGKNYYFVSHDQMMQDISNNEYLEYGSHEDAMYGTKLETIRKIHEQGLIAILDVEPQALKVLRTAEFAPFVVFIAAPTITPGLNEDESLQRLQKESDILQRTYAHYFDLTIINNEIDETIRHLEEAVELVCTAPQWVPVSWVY

[3] = target: Phosphatidylinositol 4,5-bisphosphate 3-kinase catalytic subunit beta isoform (Homo sapiens) (UniProt P42338); test: Inhibition of PIK3CB in human PC3 cell lysates at 10 uM using desthiobiotin-tagged ATP probe AX9989 followed by trypsinization by LC/MS analysis
Phosphatidylinositol 4,5-bisphosphate 3-kinase catalytic subunit beta isoform (Homo sapiens), sequence (P42338 whole entry, looked up, canonical isoform): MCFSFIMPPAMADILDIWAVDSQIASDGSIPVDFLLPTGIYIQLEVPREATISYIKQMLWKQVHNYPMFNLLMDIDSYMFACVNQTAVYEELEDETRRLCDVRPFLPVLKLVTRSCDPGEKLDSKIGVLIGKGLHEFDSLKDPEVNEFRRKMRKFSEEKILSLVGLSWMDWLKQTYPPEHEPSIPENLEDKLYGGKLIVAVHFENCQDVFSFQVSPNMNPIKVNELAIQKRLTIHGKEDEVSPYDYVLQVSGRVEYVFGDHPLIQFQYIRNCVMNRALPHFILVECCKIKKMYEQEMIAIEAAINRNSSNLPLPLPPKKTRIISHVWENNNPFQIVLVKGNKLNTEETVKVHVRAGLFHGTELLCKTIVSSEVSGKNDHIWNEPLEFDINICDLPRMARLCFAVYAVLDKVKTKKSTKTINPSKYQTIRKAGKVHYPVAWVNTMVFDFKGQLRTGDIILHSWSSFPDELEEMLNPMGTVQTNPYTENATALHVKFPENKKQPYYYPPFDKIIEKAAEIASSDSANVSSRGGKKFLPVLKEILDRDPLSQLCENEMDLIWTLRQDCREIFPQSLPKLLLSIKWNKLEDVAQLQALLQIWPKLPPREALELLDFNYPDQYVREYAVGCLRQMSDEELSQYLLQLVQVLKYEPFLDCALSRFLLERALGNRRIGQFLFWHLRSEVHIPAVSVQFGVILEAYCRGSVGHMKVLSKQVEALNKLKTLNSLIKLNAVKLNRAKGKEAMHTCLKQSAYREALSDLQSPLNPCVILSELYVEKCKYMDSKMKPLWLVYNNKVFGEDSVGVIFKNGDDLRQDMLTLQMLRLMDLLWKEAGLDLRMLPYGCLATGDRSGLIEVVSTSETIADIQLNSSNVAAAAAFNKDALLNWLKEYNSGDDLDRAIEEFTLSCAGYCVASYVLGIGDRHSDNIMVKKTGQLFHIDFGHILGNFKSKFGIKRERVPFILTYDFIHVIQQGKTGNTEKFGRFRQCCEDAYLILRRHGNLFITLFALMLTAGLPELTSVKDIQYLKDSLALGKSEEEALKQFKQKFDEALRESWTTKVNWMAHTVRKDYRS

[4] = target: IKK epsilon/TBK1 (Homo sapiens) (UniProt Q14164+Q9UHD2); test: Inhibition of IKKepsilon/TBK1 in human PC3 cell lysates at 10 uM using desthiobiotin-tagged ATP probe AX9989 followed by trypsinization by LC/MS analysis; assay type: protein-complex assay
[5] = target: AMPK alpha1/alpha2 (Homo sapiens) (UniProt P54646+Q13131); test: Inhibition of AMPKalpha1/AMPKalpha2 in human PC3 cell lysates at 10 uM using desthiobiotin-tagged ATP probe AX9989 followed by trypsinization by LC/MS analysis; assay type: protein-complex assay
AMPK alpha1/alpha2 (Homo sapiens), sequence (P54646 whole entry, looked up): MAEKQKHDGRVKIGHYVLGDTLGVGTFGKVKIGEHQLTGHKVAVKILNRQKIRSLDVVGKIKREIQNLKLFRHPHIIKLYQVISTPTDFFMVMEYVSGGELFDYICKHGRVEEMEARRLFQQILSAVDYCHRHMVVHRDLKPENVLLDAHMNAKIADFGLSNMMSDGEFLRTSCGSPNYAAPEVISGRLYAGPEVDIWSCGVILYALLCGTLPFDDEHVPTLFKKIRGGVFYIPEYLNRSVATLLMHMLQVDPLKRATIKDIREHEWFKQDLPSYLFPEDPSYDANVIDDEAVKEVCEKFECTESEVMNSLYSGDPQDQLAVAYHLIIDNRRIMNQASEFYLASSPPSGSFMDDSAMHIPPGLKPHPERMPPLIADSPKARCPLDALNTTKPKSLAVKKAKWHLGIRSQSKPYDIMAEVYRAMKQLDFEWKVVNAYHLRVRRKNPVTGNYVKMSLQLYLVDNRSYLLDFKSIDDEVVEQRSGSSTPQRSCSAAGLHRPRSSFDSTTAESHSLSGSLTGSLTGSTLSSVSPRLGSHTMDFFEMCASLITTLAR
AMPK alpha1/alpha2 (Homo sapiens), sequence (Q13131 whole entry, looked up): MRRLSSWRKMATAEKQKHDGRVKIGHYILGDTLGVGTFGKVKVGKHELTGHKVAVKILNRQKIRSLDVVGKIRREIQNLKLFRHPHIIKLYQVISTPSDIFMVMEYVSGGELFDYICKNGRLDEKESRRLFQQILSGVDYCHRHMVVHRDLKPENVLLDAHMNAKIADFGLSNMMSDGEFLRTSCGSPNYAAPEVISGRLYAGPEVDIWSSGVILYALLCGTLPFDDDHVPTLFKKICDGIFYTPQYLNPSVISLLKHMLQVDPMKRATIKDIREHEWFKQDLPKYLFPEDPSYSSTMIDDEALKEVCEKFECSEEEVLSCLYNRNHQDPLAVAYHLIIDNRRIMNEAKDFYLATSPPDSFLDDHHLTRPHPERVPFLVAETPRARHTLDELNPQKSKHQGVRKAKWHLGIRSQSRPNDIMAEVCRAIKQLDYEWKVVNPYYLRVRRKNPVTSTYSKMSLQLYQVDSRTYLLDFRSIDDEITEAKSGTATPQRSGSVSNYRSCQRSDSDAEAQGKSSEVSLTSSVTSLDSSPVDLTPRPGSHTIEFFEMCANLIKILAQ

[6] = target: T2, Eukaryotic translation initiation factor 2-alpha kinase 3 (Homo sapiens) (UniProt Q9NZJ5); test: Inhibition of PEK in human PC3 cell lysates at 10 uM using desthiobiotin-tagged ATP probe AX9989 followed by trypsinization by LC/MS analysis
T2 sequence (whole entry): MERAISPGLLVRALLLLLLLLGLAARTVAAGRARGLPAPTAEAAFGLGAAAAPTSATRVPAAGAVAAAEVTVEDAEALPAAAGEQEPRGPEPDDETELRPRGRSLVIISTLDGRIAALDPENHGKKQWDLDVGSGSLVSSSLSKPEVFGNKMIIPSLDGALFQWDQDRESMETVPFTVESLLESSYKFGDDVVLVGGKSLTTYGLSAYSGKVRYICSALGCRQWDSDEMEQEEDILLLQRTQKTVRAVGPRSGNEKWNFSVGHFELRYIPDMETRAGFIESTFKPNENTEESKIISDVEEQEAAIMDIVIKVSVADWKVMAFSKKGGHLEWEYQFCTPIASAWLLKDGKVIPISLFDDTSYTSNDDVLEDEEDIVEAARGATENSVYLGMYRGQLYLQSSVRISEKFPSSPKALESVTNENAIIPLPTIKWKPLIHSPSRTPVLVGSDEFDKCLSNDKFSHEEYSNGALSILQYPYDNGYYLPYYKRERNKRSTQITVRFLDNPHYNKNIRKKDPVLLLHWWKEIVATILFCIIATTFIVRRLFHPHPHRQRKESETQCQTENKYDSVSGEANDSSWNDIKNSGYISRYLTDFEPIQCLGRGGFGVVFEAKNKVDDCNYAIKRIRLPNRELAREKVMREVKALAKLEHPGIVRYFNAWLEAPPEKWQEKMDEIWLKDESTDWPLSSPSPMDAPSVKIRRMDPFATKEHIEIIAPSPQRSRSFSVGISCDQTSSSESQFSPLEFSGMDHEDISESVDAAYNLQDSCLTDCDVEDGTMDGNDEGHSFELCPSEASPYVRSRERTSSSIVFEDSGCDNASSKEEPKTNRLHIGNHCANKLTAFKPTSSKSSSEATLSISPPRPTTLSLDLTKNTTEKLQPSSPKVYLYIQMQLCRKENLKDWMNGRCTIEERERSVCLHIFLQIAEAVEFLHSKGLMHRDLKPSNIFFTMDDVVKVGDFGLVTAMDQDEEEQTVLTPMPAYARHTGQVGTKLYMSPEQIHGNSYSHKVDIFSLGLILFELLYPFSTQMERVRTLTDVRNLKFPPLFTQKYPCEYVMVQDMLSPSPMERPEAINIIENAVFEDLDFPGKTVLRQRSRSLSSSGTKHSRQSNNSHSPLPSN

[7] = target: Cyclin-dependent kinase 16 (Homo sapiens) (UniProt Q00536); test: Inhibition of PCTAIRE1 in human PC3 cell lysates at 10 uM using desthiobiotin-tagged ATP probe AX9989 followed by trypsinization by LC/MS analysis
Cyclin-dependent kinase 16 (Homo sapiens), sequence (Q00536 whole entry): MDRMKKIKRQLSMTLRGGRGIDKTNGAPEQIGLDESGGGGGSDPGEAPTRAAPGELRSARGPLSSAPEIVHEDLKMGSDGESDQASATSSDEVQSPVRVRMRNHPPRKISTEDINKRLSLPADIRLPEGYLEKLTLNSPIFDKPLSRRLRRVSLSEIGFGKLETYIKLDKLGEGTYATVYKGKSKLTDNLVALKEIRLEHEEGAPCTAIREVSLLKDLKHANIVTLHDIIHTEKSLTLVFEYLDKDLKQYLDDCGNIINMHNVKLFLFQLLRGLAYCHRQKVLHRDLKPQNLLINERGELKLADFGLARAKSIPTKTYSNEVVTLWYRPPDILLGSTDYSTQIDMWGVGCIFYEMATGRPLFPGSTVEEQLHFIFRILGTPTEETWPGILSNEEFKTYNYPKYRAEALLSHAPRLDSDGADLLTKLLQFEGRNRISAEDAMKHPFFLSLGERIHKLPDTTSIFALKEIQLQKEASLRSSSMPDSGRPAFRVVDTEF

[8] = target: Rho-associated protein kinase 1 (Homo sapiens) (UniProt Q13464); test: Inhibition of ROCK1 in human PC3 cell lysates at 10 uM using desthiobiotin-tagged ATP probe AX9989 followed by trypsinization by LC/MS analysis
Rho-associated protein kinase 1 (Homo sapiens), sequence (Q13464 2-1354 limits assumed): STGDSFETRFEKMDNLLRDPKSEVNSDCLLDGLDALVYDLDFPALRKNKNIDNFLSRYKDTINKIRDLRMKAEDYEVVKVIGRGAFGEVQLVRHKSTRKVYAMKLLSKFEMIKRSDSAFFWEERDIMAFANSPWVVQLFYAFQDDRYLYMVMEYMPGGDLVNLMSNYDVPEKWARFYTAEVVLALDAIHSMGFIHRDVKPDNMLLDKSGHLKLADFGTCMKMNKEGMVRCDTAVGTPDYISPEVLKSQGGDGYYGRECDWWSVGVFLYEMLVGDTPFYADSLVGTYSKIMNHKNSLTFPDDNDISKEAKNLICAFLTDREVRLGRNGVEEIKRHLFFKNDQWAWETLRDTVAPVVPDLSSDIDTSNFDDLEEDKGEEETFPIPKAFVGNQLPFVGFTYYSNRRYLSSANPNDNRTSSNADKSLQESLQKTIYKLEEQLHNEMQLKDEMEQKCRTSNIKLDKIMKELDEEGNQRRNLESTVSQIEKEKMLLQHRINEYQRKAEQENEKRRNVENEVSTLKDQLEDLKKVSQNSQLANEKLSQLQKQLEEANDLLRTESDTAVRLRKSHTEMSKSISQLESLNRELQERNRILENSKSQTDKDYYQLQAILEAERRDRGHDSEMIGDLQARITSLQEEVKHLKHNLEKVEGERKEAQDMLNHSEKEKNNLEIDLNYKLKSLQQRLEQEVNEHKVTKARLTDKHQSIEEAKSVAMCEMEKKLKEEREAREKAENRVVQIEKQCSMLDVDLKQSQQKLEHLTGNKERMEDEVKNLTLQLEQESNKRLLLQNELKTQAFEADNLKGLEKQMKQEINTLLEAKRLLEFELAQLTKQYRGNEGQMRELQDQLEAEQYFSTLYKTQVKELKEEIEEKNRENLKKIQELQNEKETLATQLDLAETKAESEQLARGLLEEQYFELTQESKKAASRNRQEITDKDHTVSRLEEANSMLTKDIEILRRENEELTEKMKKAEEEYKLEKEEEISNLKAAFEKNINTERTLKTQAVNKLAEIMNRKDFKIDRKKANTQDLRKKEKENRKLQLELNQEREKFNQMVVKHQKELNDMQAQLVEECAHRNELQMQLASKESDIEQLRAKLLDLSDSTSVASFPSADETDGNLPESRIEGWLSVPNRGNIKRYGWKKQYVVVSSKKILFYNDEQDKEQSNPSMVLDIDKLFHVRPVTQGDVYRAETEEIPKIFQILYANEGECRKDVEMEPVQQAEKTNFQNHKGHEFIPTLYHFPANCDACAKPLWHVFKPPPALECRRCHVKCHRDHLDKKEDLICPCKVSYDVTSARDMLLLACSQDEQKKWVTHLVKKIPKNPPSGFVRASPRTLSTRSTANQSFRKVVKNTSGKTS

[9] = target: Mitogen-activated protein kinase 14 (Homo sapiens) (UniProt Q16539); test: Inhibition of p38alpha in human PC3 cell lysates at 10 uM using desthiobiotin-tagged ATP probe AX9989 followed by trypsinization by LC/MS analysis
Mitogen-activated protein kinase 14 (Homo sapiens), sequence (Q16539 whole entry): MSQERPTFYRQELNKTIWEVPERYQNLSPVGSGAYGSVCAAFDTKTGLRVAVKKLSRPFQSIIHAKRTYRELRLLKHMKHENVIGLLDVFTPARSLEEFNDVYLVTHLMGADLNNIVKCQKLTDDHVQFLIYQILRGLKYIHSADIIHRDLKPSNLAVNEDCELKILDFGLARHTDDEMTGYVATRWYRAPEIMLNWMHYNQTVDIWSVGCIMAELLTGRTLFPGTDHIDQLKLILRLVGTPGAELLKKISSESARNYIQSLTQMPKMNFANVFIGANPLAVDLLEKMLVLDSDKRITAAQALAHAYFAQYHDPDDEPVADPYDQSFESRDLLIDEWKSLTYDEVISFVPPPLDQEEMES

[10] = target: Serine/threonine-protein kinase Nek6 (Homo sapiens) (UniProt Q9HC98); test: Inhibition of NEK6 in human PC3 cell lysates at 10 uM using desthiobiotin-tagged ATP probe AX9989 followed by trypsinization by LC/MS analysis
Serine/threonine-protein kinase Nek6 (Homo sapiens), sequence (Q9HC98 whole entry): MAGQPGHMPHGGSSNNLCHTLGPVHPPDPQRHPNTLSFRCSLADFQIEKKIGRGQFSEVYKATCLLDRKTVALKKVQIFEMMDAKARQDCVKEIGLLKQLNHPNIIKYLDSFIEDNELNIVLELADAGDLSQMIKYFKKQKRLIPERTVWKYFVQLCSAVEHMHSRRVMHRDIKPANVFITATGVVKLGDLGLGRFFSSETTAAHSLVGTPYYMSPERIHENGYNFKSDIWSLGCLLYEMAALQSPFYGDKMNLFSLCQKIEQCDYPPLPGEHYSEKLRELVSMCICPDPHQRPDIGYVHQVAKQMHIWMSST

Measured: inhibition

NC(=O)c1ccc2nc(N[C@H]3CC[C@H](O)CC3)c3nccn3c2c1
< 35%: [1] | [2] | [3] | [4] | [5] | [6] | [7] | [8] | [9] | [10]

CC(C)(NC(=O)c1ccc2nc(N[C@H]3CC[C@H](O)CC3)c3nccn3c2c1)c1ccccc1
< 35%: [1] | [2] | [3] | [4] | [5] | [6] | [7] | [8] | [9] | [10]

O=C(NC1(c2ccccc2)CCC1)c1ccc2nc(N[C@H]3CC[C@H](O)CC3)c3nccn3c2c1
< 35%: [1] | [2] | [3] | [4] | [5] | [6] | [7] | [8] | [9] | [10]

O=C(NC1(Cc2ccc(F)cc2)CC1)c1ccc2nc(N[C@H]3CC[C@H](O)CC3)c3nccn3c2c1
< 35%: [1] | [2] | [3] | [4] | [5] | [6] | [7] | [8] | [9] | [10]
